Legend:
Recombinant human PDE4B = Recombinant human PDE4B (Homo sapiens (Human), UniProt Q07343); experiment: PDE4B enzyme inhibition, fluorescence polarization (Transcreener AMP2/GMP2); type: biochemical
Description: The biological assay was based on fluorescence polarization measurement of AMP/GMP expression, that is, tracing binding of AMP/GMP antibody to indicate the activity of the enzyme.
Buffer solution for the assay: 10 mM trihydroxymethyl aminomethane-hydrochloric acid buffer solution (Tris-HCl) (pH 7.5), 5 mM MgCl2, 0.01% polyoxyethylene lauryl ether (Brij 35), 1 mM dithiothreitol (DTT), and 1% DMSO.
Enzyme: Recombinant human PDE4B (Genebank Accession Number NM_002600; amino acid 305 terminal) was expressed with baculovirus in Sf9 insect cells using N-terminal GST tag. MW=78 kDa.
Enzyme substrate: 1 μM cAMP
Detection: Transcreener® AMP2/GMP2 antibody and AMP2/GMP2 AlexaFluor633 tracing.
• 1. Dissolving the recombinant human PDE4B enzyme and enzyme substrate (1 μM cAMP) in freshly prepared assay buffer, respectively; • 2. Transferring the above PDE4B enzyme buffer solution to reaction wells; • 3. Adding compound 1 dissolved with 100% DMSO to reaction wells with the PDE4B enzyme buffer solution via acoustic technology (echo 550 nanoliter range) and incubating at room temperature for 10 min; • 4. […] The range of fluorescence polarization determination was Ex/Em=620/688. […]
The fluorescence polarization signal was converted into nM based on AMP/GMP standard curve and % enzyme activity calculated by Excel software relative to the DMSO control. […]

[1] = system: lipopolysaccharide (LPS)-induced TNFα production in human peripheral blood mononuclear cells; experiment: Inhibition of LPS-induced TNFα production in hPBMC (ELISA); type: cell-based
Description: Inhibitory activity of compound 1 on lipopolysaccharide (LPS)-induced TNFα production in human peripheral blood mononuclear cells.
PBMC cells were inoculated into a 96-well plate of cell culture grade at a density of 100,000 cells/100 μL/well. The cell culture medium was RPMI-1640 supplemented with 10% serum. The plate was incubated in a 37° C., 5% CO2 incubator for 2 hours. 16.8 μL/well of the assay compound was added to the cells and then the cells were incubated in a 37° C., 5% CO2 incubator for 60 minutes. 16.8 μL/well of LPS was then added to the cells and the cells were incubated in a 37° C., 5% CO2 incubator for 18 hours. The final DMSO concentration was 0.1%.
In the first step, compound 1 was diluted from a stock concentration to 1.5 mM with 100% DMSO. In the second step, the diluted compound was used as the first point and serially diluted 3-fold with 100% DMSO for 9 points. In the third step, the compound was diluted 125-fold with a serum-free medium, at which time the concentration of DMSO was 0.8%. Then 16.8 μL of the compound diluted with the medium was transferred to a 100 μL cell plate.
The compound was added, and then the cell plate was placed in a 37° C., 5% CO2 incubator and incubated for 1 hour.
In the first step, LPS was diluted with ultrapure water to a stock concentration of 1 mg/mL. […]

[2] = system: PMA-induced ear edema in CD-1 mice; experiment: In vivo model of PMA-induced ear edema in CD-1 mice; settings: for inhibition rate of ear edema / inhibition rate of ear weight gain: application BID, 10 hours after PMA induction
Description: 1 mL of acetone was added to completely dissolve 1 mg of PMA, and then 800 μL of mother liquor was pipetted and added to 2400 μL of acetone to prepare 0.25 mg/mL PMA.
CD-1 mice were sorted according to ear thickness and body weight. […] 10 μL of PMA with a concentration of 0.25 mg/mL was applied to the front and back sides of the right ear of each mouse.
The mice in the first group were normal mice, and these mice will not be treated in any way; the mice in the second group were given a vehicle; and the mice in the third group, the fourth group, and the fifth group were given compound 1 at a dose of 0.1 mg/ear, 0.3 mg/ear, and 1 mg/ear, respectively. Drugs were applied to the right ear of the mice 30 minutes before and 15 minutes after PMA induction, respectively.
Measurement and sampling: Ten hours after PMA induction, the mice were anesthetized and the thickness of the right ear was measured. After measuring the thickness of the right ear, the mouse was immediately euthanized, and the ear piece was collected and weighed.
The assay data was expressed as mean±standard error of mean (Mean±SEM), and the degree of ear swelling and ear weight were analyzed by one-way analysis of variance (One-way ANOVA), wherein p<0.05 was considered a significant difference.

Recombinant human PDE4B, sequence (Q07343 305-736 limits assumed): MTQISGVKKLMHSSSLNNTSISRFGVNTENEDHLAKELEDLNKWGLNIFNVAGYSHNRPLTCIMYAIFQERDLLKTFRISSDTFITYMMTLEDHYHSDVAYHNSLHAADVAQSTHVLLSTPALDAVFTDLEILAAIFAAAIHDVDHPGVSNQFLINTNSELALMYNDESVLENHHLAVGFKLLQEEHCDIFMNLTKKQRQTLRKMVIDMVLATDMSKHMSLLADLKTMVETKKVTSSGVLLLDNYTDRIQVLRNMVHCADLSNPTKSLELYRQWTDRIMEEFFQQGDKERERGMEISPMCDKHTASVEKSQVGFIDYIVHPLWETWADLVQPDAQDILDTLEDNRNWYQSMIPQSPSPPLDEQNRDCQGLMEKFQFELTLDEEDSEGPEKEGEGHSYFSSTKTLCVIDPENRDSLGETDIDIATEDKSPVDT

CCOc1cc([C@@H](CS(C)(=O)=O)n2c(=O)[nH]c3cc(F)ccc32)ccc1OC [Compound 1]
in vitro activity of inhibiting PDE4B (in words) (Recombinant human PDE4B): excellent in vitro activity
IC50 (Recombinant human PDE4B; PDE4B, 1 μM cAMP substrate, average in triplicate): 26.2 nM
in vitro activity of inhibiting TNFα production in hPBMC (in words) [1]: excellent in vitro activity
IC50 ([1]; Homo sapiens, PBMC, TNFα production in hPBMC, LPS 18 hours, average in triplicate): 63.9 nM
inhibition rate of ear edema ([2]; 0.1 mg/ear): 22%
inhibition rate of ear weight gain ([2]; 0.1 mg/ear): 39%
inhibition rate of ear edema ([2]; 0.3 mg/ear): 39%
inhibition rate of ear weight gain ([2]; 0.3 mg/ear): 46%
inhibition rate of ear edema ([2]; 1 mg/ear): 88%
inhibition rate of ear weight gain ([2]; 1 mg/ear): 85%
effect on the symptoms of PMA-induced ear edema (in words) ([2]; three dose groups of 0.1, 0.3 and 1 mg/ear): significant improvement effect
